Consider one molecule from patent US11707464B2, “Methods of treating heavy menstrual bleeding” (AbbVie Inc., priority 2013, dated 2023).

Common to all, as to type: in vivo, human
Series [1] has as its system premenopausal women with uterine fibroids and heavy menstrual bleeding. The series is described as follows: Phase 2a uterine fibroid trial: fibroid volume and uterine volume. The conditions noted are these: for percent of subjects who achieved a ≥25% reduction in uterine volume: placebo 9%; for percent of subjects who achieved a ≥25% reduction in fibroid volume: placebo 29%. An excerpt:
In another embodiment, the present invention relates to methods for reducing the fibroid volume in a subject with uterine fibroids. In one aspect, the methods of the present invention can be used to reduce the fibroid volume by greater than or equal to at least about 25%. In another aspect, the methods of the present invention can be used to reduce the fibroid volume in a subject with uterine fibroids. More specifically, the methods of the present invention can be used to reduce the fibroid volume in a subject with uterine fibroids by volume by greater than or equal to at least about 25%. In another aspect, the methods of the present invention are used to reduce the fibroid volume in a subject with uterine fibroids prior to hysterectomy, myomectomy, or uterine artery embolization. Methods for measuring fibroid volume are known in the art and include ultrasound and/or MRI.
In another embodiment, the present invention relates to methods for reducing the total uterine volume in a subject with uterine fibroids. The “total uterine volume” is the volume of the entire uterus. In one aspect, the methods of the present invention can be used to reduce the total uterine volume by greater than or equal to at least about 25%. In another aspect, the methods of the present invention can be used to reduce the total uterine volume in a subject with uterine fibroids. More specifically, the methods of the present invention can be used to reduce the total uterine volume in a subject with uterine fibroids by greater than or equal to at least about 25%. Methods for measuring total uterine volume are known in the art and include, ultrasound and/or MRI.
This example is a Phase 2a, multicenter, double-blind, placebo-controlled, randomized trial (N=280) with a 3-month treatment duration evaluating the safety and efficacy of Elagolix administered with or without Activella® in premenopausal women with uterine fibroids.
It evaluates the safety and efficacy of […] of Elagolix (100 mg BID, 200 mg BID, 200 mg BID plus low dose Activella® (a combination of 0.5 mg estradiol and 0.1 mg northindrone acetate), 300 mg BID, 300 mg BID plus 1.0 mg of Estrace and 200 mg cyclical Prometrium (collectively referred to as “EP”), 400 mg QD and 600 QD) versus placebo (PBO) to reduce uterine bleeding associated with uterine fibroids and to reduce fibroid volume and uterine volume in premenopausal women 20 to 49 years of age with heavy menstrual bleeding (HMB; >80 mL blood loss per menstrual cycle). The study involved the following six (6) cohorts:
There are a number of efficacy endpoints, but a composite endpoint consisting of two bleeding assessments was used to assess one measure of efficacy. It included the percent of subjects who achieved a menstrual blood loss (MBL) volume of <80 mL at the Final Month (last 28 days of treatment), and also achieved a ≥50% reduction in MBL volume from baseline to the Final Month (last 28 days of treatment) as measured by the Alkaline Hematin (AH) method. Eighty-five percent (85%), 97%, and 30% of subjects achieved the composite bleeding assessment endpoint in the 200 mg BID, 300 mg BID, and placebo groups, respectively (P<0.05 for 200 mg BID versus placebo in cohort 1, and 300 mg BID versus placebo in cohort 2). […]

Another series relates to women with endometriosis. The series is described as follows: Phase 2 endometriosis studies: safety and tolerability. An excerpt: The safety and tolerability of elagolix in women with endometriosis has been evaluated in 6 completed Phase 2 studies including 708 women who received at least 1 dose of elagolix. Overall, 475 women have received elagolix for at least 12 weeks and 278 women for a period of at least 24 weeks. The majority of women were Caucasian (78.9% to 100%), while approximately 7% were black and approximately 4.5% were Hispanic. The mean age across these six Phase 2 studies was 31 to 33 years (range 18 to 48 years) and mean body mass index (BMI) of 23 to 28 kg/m. Overall, 40% to 70% of women had received prior therapy for the treatment of endometriosis, and hormonal contraceptives were the most common class of drug prescribed for the condition. In addition, the majority were receiving analgesic medications (nonsteroidal anti-inflammatory drugs, opioids, and/or other) prior to study enrollment.
None of these events were serious and they contributed to less than 1% of study discontinuations.

Series [2] has as its system premenopausal women with endometriosis. The series is described as follows: Phase 2 endometriosis studies: uterine bleeding by daily eDiary. The following applies: for days of bleeding per month: eDiary. On the procedure:
The effects of elagolix on uterine bleeding were evaluated in the Phase 2 endometriosis program, with an analysis of the percentage of days of bleeding per month according to daily reporting of bleeding in an electronic diary (eDiary).

Series [3] shares this test system. The series is described as follows: Phase 2 endometriosis studies: endometriosis-associated pain efficacy. The procedure: Six Phase 2 randomized, double-blind, placebo-, and/or active-controlled, parallel-group, multiple dose studies were completed to evaluate elagolix as a treatment for endometriosis associated pain. Efficacy was assessed for dysmenorrhea (DYS), nonmenstrual pelvic pain (NMPP), dyspareunia, and general pelvic pain with a range of instruments.
Additional efficacy assessments included quality of life and the use of analgesics for control of endometriosis pain.
Across these Phase 2 studies, the enrollment criteria were similar and were intended to select premenopausal women aged 18 to 49 years of age with endometriosis confirmed by visual inspection (laparoscopy or laparotomy within 5 to 8 years of screening) who experienced moderate to severe endometriosis-associated pain. Women were included if they had regular menstrual cycles and no significant uterine fibroids or pelvic lesions.
Total daily doses of elagolix ranging from 75 to 250 mg were evaluated across a range of pain instruments measuring DYS, NMPP, or general pelvic pain (including patient global impression of change), during 12 or 24 weeks of treatment.

On to `COc1cccc(-c2c(C)n(Cc3c(F)cccc3C(F)(F)F)c(=O)n(C[C@H](NCCCC(=O)O)c3ccccc3)c2=O)c1F` [Elagolix, 4-((R)-2-[5-(2-fluoro-3-methoxy-phenyl)-3-(2-fluoro-6-trifluoromethyl-benzyl)-4-methyl-2,6-dioxo-3,6-dihydro-2H-pyrimidin-1-yl]-1-phenyl-ethylamino)-butyric acid], for which, in series [1] (200 mg BID), the “percent of subjects who achieved a ≥25% reduction in uterine volume” value is 50% and the “percent of subjects who achieved a ≥25% reduction in fibroid volume” value is on record as 63%. Further, in series [1] (300 mg BID), the “percent of subjects who achieved a ≥25% reduction in uterine volume” value turned out to be 68% and the “percent of subjects who achieved a ≥25% reduction in fibroid volume” value is 55%. Also, the “uterine and fibroid volumes (FIG. 4)” value in series [1] (300 mg BID, within 3 months) is given as “strongest effects”. In the series on women with endometriosis (12-week and 24-week analysis sets, incidence similar to DMPA-SC in 24-week analysis), the “most common adverse events” value was “headache and nausea”. The safety and tolerability entry in the series with women with endometriosis (all daily doses (100 to 250 mg) evaluated) is “safe and well tolerated”. In the series on women with endometriosis (completed Phase 2 endometriosis studies), the “incidence of AEs that led to discontinuations” value was 4.8%. In addition, the “study discontinuations contributed by headache and nausea” value in the series on women with endometriosis (none of these events serious) is given as “less than 1%”. Also, the “days of bleeding per month” value in series [2] (250 mg QD compared with 150 mg QD) is given as “fewer days of bleeding”. The “bleeding intensity and intervals between bleeding episodes” value in series [2] (majority of elagolix recipients, individual menstrual charts from eDiary) was “reduced bleeding intensity and often had extended intervals between bleeding episodes”. Further, the “days of bleeding per month” value in series [2] (overall, compared with placebo) was “fewer days of bleeding per month”. In series [3] (Phase 2 endometriosis studies), the “quality of life assessments” value was “improved quality of life assessments” and the symptoms of dyspareunia result is recorded as “reduced”. Further, in series [3] (daily dose of 150 mg), the “effect on DYS and NMPP compared with DMPA-SC” value is on record as “comparable effect”. Further, the “effect on DYS and NMPP compared with leuprorelin” value in series [3] (daily doses of 150 mg and 250 mg) was “less effect”. Further, in series [3] (daily doses of 100 to 250 mg, 12 or 24 weeks), the endometriosis-associated pain entry was “clinically meaningful reductions”. In addition, in series [3] (elagolix treatment arms), the “overall usage of analgesics for pain control” value is reported as “decreased”.
